{"source": "patent US4898737A", "about": "“Controlled absorption pharmaceutical composition” (Elan Corporation plc, priority 1983, dated 1990)", "origin": "cited, not measured here", "data": [{"compound": "CC(C)NCC(O)COc1cccc2ccccc12", "note": "(stereo not drawn) [propranolol, 1-(isopropylamino)-3-(1-naphthyloxy)-2-propanol]", "values": [{"measurement": "time of peak plasma concentrations", "setting": "after a single oral dose", "result": "one to two"}, {"measurement": "metabolism", "setting": "oral", "result": "extensively and rapidly metabolised"}, {"measurement": "urinary excretion", "setting": "oral", "result": "excreted in the urine as free and conjugated propranolol and as metabolites"}]}]}
